Laboratory results taken from ChEMBL document CHEMBL4602602, “Structure-activity relationship (SAR) studies of synthetic glycogen synthase kinase-3β inhibitors: A critical review” (Eur J Med Chem, 2019).

molecular target: not listed separately; assay: Inhibition of full length recombinant His-tagged human Glycogen synthase kinase-3 beta expressed in Baculovirus expression system; settings: not given

SMILES | IC50 [nM]
CN(C)CCCn1cc(C2=C(c3cccc4ccccc34)C(=O)NC2=O)c2cccnc21 | 140
O=C1NC(=O)C(c2cn(CCCO)c3ncccc23)=C1c1ccccc1Cl | 10
COc1ccccc1C1=C(c2cn(CCCO)c3ncccc23)C(=O)NC1=O | 4
O=C1NC(=O)C(c2cn(CCCO)c3ncccc23)=C1c1ccccc1C(F)(F)F | 14

molecular target: T1, Glycogen synthase kinase-3 beta (Homo sapiens, UniProt P49841); assay: Inhibition of full length recombinant His-tagged human Glycogen synthase kinase-3 beta expressed in Baculovirus expression system; settings: not given
T1 sequence (P49841 whole entry): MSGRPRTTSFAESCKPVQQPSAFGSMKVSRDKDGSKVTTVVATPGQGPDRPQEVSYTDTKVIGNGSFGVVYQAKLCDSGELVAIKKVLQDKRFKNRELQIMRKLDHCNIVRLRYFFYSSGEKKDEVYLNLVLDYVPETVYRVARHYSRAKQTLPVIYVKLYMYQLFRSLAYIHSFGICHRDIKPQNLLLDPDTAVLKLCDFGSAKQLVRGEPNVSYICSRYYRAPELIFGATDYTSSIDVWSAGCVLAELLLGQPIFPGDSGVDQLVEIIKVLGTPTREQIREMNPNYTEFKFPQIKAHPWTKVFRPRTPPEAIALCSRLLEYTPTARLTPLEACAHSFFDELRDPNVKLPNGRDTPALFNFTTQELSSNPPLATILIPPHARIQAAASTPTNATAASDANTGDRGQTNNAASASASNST

SMILES | IC50 [nM]
NCCCn1cc(C2=C(c3cccc4ccccc34)C(=O)NC2=O)c2cccnc21 | 31

molecular target: T1, Glycogen synthase kinase-3 beta; assay: Inhibition of Glycogen synthase kinase-3 beta (unknown origin); settings: not given

SMILES | IC50 [nM]
Cc1ccc2[nH]nc(C(=O)NCC3CCN(C(=O)Nc4ccccc4)CC3)c2c1 | 640
C=CC(=O)Nc1cccc(C2=C(c3cn(C)c4cc(OC)ccc34)C(=O)NC2=O)c1 | 690
C=CC(=O)Nc1cccc(C2=C(c3cn(C(C)C)c4ncccc34)C(=O)NC2=O)c1 | 34
C=CC(=O)Nc1cccc(C2=C(c3cn(C)c4ccc(F)cc34)C(=O)NC2=O)c1 | 150
COc1ccc(NC(=O)c2ccc(NC3=C(c4ccccc4)C(=O)NC3=O)cc2)cc1 | 120
COc1ccc(C2=C(Nc3ccc(C(=O)Nc4ccccc4)cc3)C(=O)NC2=O)cc1 | 170
CCc1ccc(-n2cc(CSc3nnc(Cn4c(C(F)(F)F)nc5ccccc54)o3)nn2)cc1 | 390
COc1ccc(C2=C(Nc3ccc(C(=O)Nc4ccc(Cl)cc4)cc3)C(=O)NC2=O)cc1 | 190
COc1ccc(/C=C/C(O)=C/C(=O)/C=C/c2ccc(OCc3ccccc3)cc2)cc1OC | 900
COc1ccc(NC(=O)c2ccc(NC3=C(c4ccc(OC)cc4)C(=O)NC3=O)cc2)cc1 | 90
FC(F)(F)c1nc2ccccc2n1Cc1nnc(SCc2cn(-c3ccccc3)nn2)o1 | 320
CC(C)n1cc(C2=C(c3cccc(NC(=O)CF)c3)C(=O)NC2=O)c2cccnc21 | 17
FC(F)(F)c1nc2ccccc2n1Cc1nnc(SCc2cn(-c3cccnc3)nn2)o1 | 150
O=C(CSc1nnc(Cn2c(C(F)(F)F)nc3ccccc32)o1)Nc1ccc(F)cc1 | 200
C=CC(=O)Nc1cccc(C2=C(c3cn(C)c4cc(F)ccc34)C(=O)NC2=O)c1 | 199
Fc1ccccc1-n1cc(CSc2nnc(Cn3c(C(F)(F)F)nc4ccccc43)o2)nn1 | 270
O=C(CSc1nnc(Cn2c(C(F)(F)F)nc3ccccc32)o1)Nc1ccccc1 | 130

molecular target: T1, Glycogen synthase kinase-3 beta; assay: Inhibition of Glycogen synthase kinase-3 beta in human SH-SY5Y cells after 2 hrs by ELISA; format: cell-based; settings: not given

SMILES | IC50 [µM]
COc1ccc(-c2cc(=O)c3c(OC)c([C@H]4O[C@H](C(=O)N[C@@H](C)C(F)(F)F)[C@@H](O)[C@H](O)[C@H]4O)c(OC)cc3o2)cc1OC | 0.59
COc1ccc(-c2cc(=O)c3c(OC)c([C@H]4O[C@H](C(=O)N[C@H](C)C(F)(F)F)[C@@H](O)[C@H](O)[C@H]4O)c(OC)cc3o2)cc1OC | 2.3
COc1ccc(-c2cc(=O)c3c(OC)c([C@H]4O[C@H](C(=O)O)[C@@H](O)[C@H](O)[C@H]4O)c(OC)cc3o2)cc1OC | 237
COc1ccc(-c2cc(=O)c3c(OC)c([C@H]4O[C@H](CO)[C@@H](O)[C@H](O)[C@H]4O)c(OC)cc3o2)cc1OC | 239

tested on: not listed separately; assay: Activation of GSK-3 in HEK293 cells assessed as induction in beta-catenin-LEF/TCF regulated reporter gene transcription; format: cell-based; settings: Homo sapiens

SMILES | EC50 [µM]
Cn1cc(C2=C(c3ccc(Cl)cc3Cl)C(=O)NC2=O)c2ccccc21 [SB-216763] | 3.6

tested on: HEK293; assay: Activation of GSK-3 in HEK293 cells assessed as induction in beta-catenin-LEF/TCF regulated reporter gene transcription at 5 uM relative to control; format: cell-based; settings: Homo sapiens

SMILES | fold change (FC)
Cn1cc(C2=C(c3ccc(Cl)cc3Cl)C(=O)NC2=O)c2ccccc21 [SB-216763] | 2.5

molecular target: T1, Glycogen synthase kinase-3 beta; assay: Inhibition of Glycogen synthase kinase-3 beta (unknown origin) after 30 mins by Kinase-Glo assay; settings: not given

SMILES | IC50 [nM]
COc1ccccc1-n1cc(CSC2=NC(c3ccccc3)CC(=O)N2C)nn1 (stereo not given) | 1310
CN1C(=O)CC(c2ccccc2)N=C1SCc1cn(-c2cccc([N+](=O)[O-])c2)nn1 (stereo not given) | 153
CN1C(=O)CC(c2ccccc2)N=C1SCc1cn(-c2ccccc2F)nn1 (stereo not given) | 122
CN1C(=O)CC(c2ccccc2)N=C1SCc1cn(-c2ccc(C(C)(C)C)cc2)nn1 (stereo not given) | 1340
CCc1ccc(-n2cc(CSC3=NC(c4ccccc4)CC(=O)N3C)nn2)cc1 (stereo not given) | 94
Cc1ccc(-n2cc(CSC3=NC(c4ccccc4)CC(=O)N3C)nn2)cc1C (stereo not given) | 82
CN1C(=O)CC(c2ccccc2)N=C1SCc1cn(-c2ccccc2)nn1 (stereo not given) | 916
